The text below walks through data of patent US20070134660A1, “Methods for identifying modulators of kinesin activity” (ROSETTA INPHARMATICS LLC, priority 2003, published 2007).

A word on the EC50: it is the concentration that produces a half-maximal response. In general, inhibition refers to the change of the read-out against control, counted positive when it falls. A word on the IC50: it is the concentration at which inhibition is half-maximal.

In one test the test system is A2780 cells. Kind of test: alamarBlue cell growth assay, candidate KIF14 modulators in A2780 cells. In kind it is cell-based. Conditions: Homo sapiens, 48 hour incubation; for EC50: read-out: EC50 (nM), Growth Inhibition in A2780 Cells; for inhibition at 0.0137 µM: [Compound] 13.7 nM; for inhibition at 0.0141 µM: [Compound] 14.1 nM; for inhibition at 0.123 µM: [Compound] 123 nM; for inhibition at 0.37 µM: [Compound] 370 nM; for inhibition at 1.111 µM: [Compound] 1111 nM; for inhibition at 3.333 µM: [Compound] 3333 nM; for inhibition at 10 µM: [Compound] 10000 nM. The method, then:
alamarBlue™ Assay for Cell Growth: The alamarBlue™ assay is a measure of cellular respiration and is used as a measure of live cell number. The internal environment of the proliferating cell is more reduced than that of non-proliferating cells. Specifically, the ratios of NADPH/NADP, FADH/FAD, FMNH/FMN, and NADH/NAF increase during proliferation. alamarBlue™ can be reduced by these metabolic intermediates and, therefore, can be used to monitor cell proliferation.
A2780 cells were plated at a density of 4000/cells per well in RPMI1640 (containing 10% FBS, 1% Pen/Strep, 0.01 mg/ml insulin) in a 96-well plate (Costar, Cat. No. 3606) 16 hours prior to treatment. A compound dilution plate was prepared from a 10 mM stock solution using a 3-fold serial dilution series in DMSO. A 1.2 microliter aliquot of each concentration was transferred into 0.6 ml of medium. A 100 microliter aliquot of each concentration was added to the appropriate wells already containing 100 microliters of compound-free medium. After a 48 hour incubation at 37° C., 20 microliters of alamarBlue™ was added to each well (10% vol/vol). After an additional 6 hour incubation at 37° C., the plates were read on a spectrofluorimeter SpectroMax Gemini (excitation 544 nm, emission 590 nm). The background value (averaged from wells with no cells) was subtracted from each reading.
In general terms: Alamar Blue is a resazurin reagent that responds to reducing activity.

The target in the next test is MCAK (SEQ ID NO:22) (Homo sapiens, UniProt Q99661). The test is described as follows: MCAK motor domain ATPase assay. In kind it is biochemical. Conditions: read-out: uKHC, nKHC, CENP-E, MKLP-1, KIF1B, MCAK ATPase IC50.
Chain of MCAK (SEQ ID NO:22) (Q99661 183-646): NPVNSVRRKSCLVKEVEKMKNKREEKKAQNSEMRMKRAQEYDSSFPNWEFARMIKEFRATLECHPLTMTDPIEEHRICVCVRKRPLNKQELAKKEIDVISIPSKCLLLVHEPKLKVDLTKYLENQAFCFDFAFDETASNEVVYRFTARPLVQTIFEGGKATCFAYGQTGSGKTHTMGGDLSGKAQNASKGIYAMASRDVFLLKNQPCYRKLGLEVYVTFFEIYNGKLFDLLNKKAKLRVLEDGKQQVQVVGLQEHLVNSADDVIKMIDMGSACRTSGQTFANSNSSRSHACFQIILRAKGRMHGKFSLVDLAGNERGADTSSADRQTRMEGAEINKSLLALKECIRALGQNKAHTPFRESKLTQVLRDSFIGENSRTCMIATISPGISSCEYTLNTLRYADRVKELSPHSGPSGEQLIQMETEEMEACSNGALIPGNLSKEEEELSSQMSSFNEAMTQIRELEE
The target in a further test is T1, uKHC (SEQ ID NO:17) (Homo sapiens, UniProt P33176).
T1 construct: His6 (printed only as 'H')
T1 sequence (P33176 with tags, fused parts or gaps): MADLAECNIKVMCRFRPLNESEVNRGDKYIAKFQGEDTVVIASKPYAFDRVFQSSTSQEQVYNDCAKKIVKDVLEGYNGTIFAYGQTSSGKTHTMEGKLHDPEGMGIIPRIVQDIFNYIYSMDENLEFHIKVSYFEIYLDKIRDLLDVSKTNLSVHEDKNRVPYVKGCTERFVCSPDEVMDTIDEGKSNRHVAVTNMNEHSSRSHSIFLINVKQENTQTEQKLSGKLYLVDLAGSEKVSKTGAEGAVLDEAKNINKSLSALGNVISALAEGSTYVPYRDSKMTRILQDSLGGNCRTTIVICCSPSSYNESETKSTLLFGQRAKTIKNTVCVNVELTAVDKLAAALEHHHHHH
Kind of test: uKHC motor domain ATPase assay. In kind it is biochemical. The note with it: read-out: uKHC, nKHC, CENP-E, MKLP-1, KIF1B, MCAK ATPase IC50.

Test [1] has as its target T2, KIF14 V342-K720 MD protein (SEQ ID NO:4) (Homo sapiens, UniProt Q15058).
T2 construct: made in house; host or cells: E. coli BL21 (DE3)
T2 sequence (Q15058 with tags, fused parts or gaps): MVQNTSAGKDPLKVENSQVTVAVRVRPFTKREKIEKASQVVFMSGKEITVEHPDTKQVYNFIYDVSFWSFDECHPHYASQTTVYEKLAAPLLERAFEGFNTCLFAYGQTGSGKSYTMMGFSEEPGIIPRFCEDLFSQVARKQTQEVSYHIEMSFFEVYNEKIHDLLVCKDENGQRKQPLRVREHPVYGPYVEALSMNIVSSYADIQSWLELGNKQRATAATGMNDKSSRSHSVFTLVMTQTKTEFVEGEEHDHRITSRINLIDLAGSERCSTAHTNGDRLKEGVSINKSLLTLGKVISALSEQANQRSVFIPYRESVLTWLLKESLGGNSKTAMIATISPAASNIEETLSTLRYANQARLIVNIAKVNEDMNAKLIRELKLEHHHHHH
Kind of test: KIF14 motor domain microtubule-dependent ATPase assay (Quinaldine Red). The note with it: n = 2. In kind it is biochemical. The method, then:
KIF14 Motor Domain Assay: KIF14 MDs were assayed for microtubule (MT)-dependent ATP hydrolysis by measuring the rate of inorganic phosphate (Pi) release using the dye Quinaldine Red, which absorbs light of 540 nm when bound to Pi. Assays (50 microliters) contained 50 mM K-PIPES pH 6.9 (which contains 90 mM KCl), 1 mM EGTA pH 8.0, 1 mM DTT, 100 micrograms/mL BSA, 2 mM MgCl2, 1 mM Na-ATP pH 7.0, 0.25-5 micromolar MT (which contain equimolar amounts of Taxol®), and 20-200 nM KIF14 MD enzyme. Reactions were initiated by the addition of enzyme and allowed to proceed at room temperature until they were quenched at regular time intervals by the addition of 50 microliters of 1.8 M KCl, 50 mM EDTA. To this was added 150 microliters of the Quinaldine Red dye solution (0.07 mg/mL quinaldine red, 0.09% polyvinyl alcohol, 4.1 mM ammonium molybdate, and 380 mM H2SO4). After 10 min incubation at room temperature, absorbance at 540 nm was read on a Molecular Devices Microtiter plate reader. Rates were calculated using the linear (steady-state) phase of the reaction.
Suitability of K14 Motor Domains for high-throughput screening: The motor domain assay was as described above, using 50 mM MES pH 6.0, 20 mM added KCl, 0.5 micromolar MTs, a temperature of 37° C., and varying enzyme concentration from 0 to 10 nM. The signal to background ratio, calculated as the amount of Pi formed after a 90 minute incubation in the presence of enzyme relative to in the absence of enzyme, was determined using different concentrations of the V342-K720 motor domain (SEQ ID NO:4), and is shown in Table 9. A high enough signal over background was obtained at low enzyme concentrations to allow high-through-put screening (HTS). Moreover, the V342-K720 motor domain (SEQ ID NO:4) was stable in the reaction for at least 90 minutes.
Screen for KIF14 Modulators: The ATPase assay described in EXAMPLE 7, as optimized in EXAMPLE 8, was used to screen for compounds that modulated the activity of the KIF14 V342-K720 MD protein (SEQ ID NO:4).

Some results are limits rather than exact numbers.

Regarding `CC(C)c1ccc(/C=N/NC(N)=S)cc1[N+](=O)[O-]` [compound 4, 4-isopropyl-3-nitrobenzaldehyde thiosemicarbazone], in the test on A2780 cells, the concentration giving a half-maximal response (EC50) was found to be 7980 nM, the inhibition at 0.0137 µM is -7%, the inhibition at 0.0141 µM is -4% and the inhibition at 0.123 µM was -9.2%. Besides, in the test on A2780 cells, the inhibition at 0.37 µM was 4.4%, the inhibition at 1.111 µM is 7.5%, the inhibition at 3.333 µM stood at 25% and the inhibition at 10 µM turned out to be 61.8%. Moreover, the IC50 on MCAK (SEQ ID NO:22) was over 40 µM. In addition, the IC50 at uKHC (SEQ ID NO:17) was over 40 µM. Further, in test [1], the IC50 was 0.054 µM.

As for `NC(=S)N/N=C/c1ccc(C2CCCCC2)cc1` [compound 3, 4-cyclohexylbenzaldehyde thiosemicarbazone], in the test on A2780 cells, the EC50 amounted to 3600 nM, the inhibition at 0.0137 µM is -5.3%, the inhibition at 0.0141 µM was -8.1% and the inhibition at 0.123 µM was -10.4%. Moreover, in the test with A2780 cells, the inhibition at 0.37 µM was determined as 7.8%, the inhibition at 1.111 µM amounted to 6%, the inhibition at 3.333 µM is 39.8% and the inhibition at 10 µM was 107%. The concentration for half-maximal inhibition (IC50) at MCAK (SEQ ID NO:22) was over 40 µM. Moreover, the IC50 on uKHC (SEQ ID NO:17) is over 40 µM. The same compound returned a 50% inhibitory concentration (IC50) in test [1] of 0.076 µM.

`CC(C)c1ccc(/C=N/NC(N)=S)cc1` [compound 2, 4-isopropylbenzaldehyde thiosemicarbazone]: the IC50 at MCAK (SEQ ID NO:22) was over 40 µM; at uKHC (SEQ ID NO:17), over 40 µM; in test [1] it was 0.895 µM.

Regarding `NC(=S)N/N=C\c1ccc(-c2ccccc2)cc1` [compound 1, 1,1′-biphenyl-4-carbaldehyde thiosemicarbazone], in the test on A2780 cells, the EC50 was over 10000 nM, the inhibition at 0.0137 µM was -4.5%, the inhibition at 0.0141 µM worked out at 11.6% and the inhibition at 0.123 µM is -10.3%. Besides, in the test on A2780 cells, the inhibition at 0.37 µM was found to be 19%, the inhibition at 1.111 µM is 18.7%, the inhibition at 3.333 µM came out at 23.6% and the inhibition at 10 µM was 31.3%. The IC50 on MCAK (SEQ ID NO:22) is over 40 µM. Also, the IC50 on uKHC (SEQ ID NO:17) is over 40 µM. The IC50 in test [1] came out at 0.182 µM.
